Assay results taken from US11072618B2, “Compounds, compositions and methods” (Denali Therapeutics Inc., priority 2016, dated 2021).

biological target: T1, GST-human receptor interacting protein kinase 1 fusion (8-327) enzyme (Homo sapiens, UniProt Q13546); assay: Fluorescent Polarization Binding (FP Binding) assay, receptor interacting protein kinase 1; details: 10 nM enzyme, 5 nM fluorescent-labeled ligand, RT 30 min, mean of a minimum of two independent experiments
T1 sequence (Q13546 8-327): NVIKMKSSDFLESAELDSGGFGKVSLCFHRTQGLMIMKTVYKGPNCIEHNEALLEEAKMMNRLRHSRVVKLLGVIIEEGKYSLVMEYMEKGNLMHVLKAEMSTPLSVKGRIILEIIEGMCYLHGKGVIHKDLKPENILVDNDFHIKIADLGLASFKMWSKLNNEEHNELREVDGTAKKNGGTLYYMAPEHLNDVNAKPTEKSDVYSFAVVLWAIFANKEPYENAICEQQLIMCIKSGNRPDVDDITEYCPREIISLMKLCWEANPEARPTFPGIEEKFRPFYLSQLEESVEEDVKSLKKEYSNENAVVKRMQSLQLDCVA
Method: Fluorescent Polarization Binding (FP Binding) assay (Berger S. B. et al. (2015) Cell Death Discovery, 1: 15009; Maki J. L. et al. (2012) Anal Biochem., 427(2): 164-174) was performed in polystyrene low volume 384-well black plate, at Room Temperature (RT) in a final volume of 10.1 μL/well using 10 nM of GST-human receptor interacting protein kinase 1 fusion (8-327) enzyme and 5 nM of fluorescent-labeled ligand (14-(2-{[3-({2-{[4-(cyanomethyl)phenyl]amino}-6-[(5-cyclopropyl-1H-pyrazol-3-yl)amino]-4-pyrimidinyl}amino) propyl]amino}-2-oxoethyl)-16,16,18,18-tetramethyl-6,7,7a,8a,9,10,16,18-octahydrobenzo[2″,3″]indolizino[8″,7″:5′,6′]pyrano[3′,2′:3,4]pyrido[1,2-a]indol-5-ium-2-sulfonate.
Test compounds were serially diluted in DMSO at 100 fold final concentrations in the assay (1% DMSO final). In each well of a 384-well Plate were dispensed 0.1 μL of compound solution (or DMSO for controls) followed by 5 μL of GST-human receptor interacting protein kinase 1 fusion (8-327) enzyme at twice the final concentrations in assay buffer (50 mM HEPES pH 7.5, 10 mM NaCl, 50 mM MgCl2, 0.02% CHAPS, 0.5 mM DTT and 0.01% Pluronic F127). For negative control the enzyme addition was replaced by assay buffer only.
After addition of 5 μL of fluorescent-labeled ligand at twice the final concentrations in assay buffer, the plate was incubated at RT for 30 min. At the end, the binding was measured as FP value with the Envision (PerkinElmer) plate reader using filter for an excitation λ=531 nm FP and an emission λ=595 nm FP (S & P-pol).
Test compound inhibition was expressed as percent inhibition of internal assay controls. For concentration response curves, normalized data is fit and IC50 determined using XL-fit (IDBS) for Excel. IC50 were averaged to determine a mean value, for a minimum of two independent experiments.
Receptor interacting protein kinase 1 activity of exemplary compounds was determined according to the above general procedures.

Question: CC1(C)CN2CCC(c3cccc(F)c3)N2C1=O (single isomer, unassigned) [Compound 3] was tested. Which IC50 did it give?
Answer: < 1000 nM

Question: How did the IC50 turn out when CCC1(C)CN2CCC(c3cc(F)cc(F)c3)N2C1=O (single isomer, unassigned) [Compound 22] was run?
Answer: < 1000 nM

Question: Which IC50 does the source give for CC(F)(F)C1(C)CN2CCC(c3cncc(C#N)c3)N2C1=O (single isomer, unassigned) [Compound 36] here?
Answer: 1000 to 30000 nM

Question: CC1(C(F)F)CN2CCC(c3cncc(C#N)c3)N2C1=O (single isomer, unassigned) [Compound 38] was tested. Which IC50 did it give?
Answer: 1000 to 30000 nM

Question: Which IC50 does the source give for CC1(C(F)F)CN2CCC(c3cncc(C#N)c3)N2C1=O (single isomer, unassigned) [Compound 39] here?
Answer: < 1000 nM

Question: CC1(C(F)F)CN2CCC(c3cncc(F)c3)N2C1=O (single isomer, unassigned) [Compound 45] was tested. Which IC50 did it give?
Answer: < 1000 nM

Question: Which IC50 does the source give for CCC1(C(F)F)C[C@H]2CCC(c3cccc(F)c3)N2C1=O (single isomer, unassigned) [Compound 55] here?
Answer: < 1000 nM

Question: Which IC50 does the source give for CCC1(C(F)F)C[C@@H]2CCC(c3cccc(F)c3)N2C1=O (single isomer, unassigned) [Compound 57] here?
Answer: < 1000 nM

Question: Which IC50 does the source give for CC1(C)CN2CC[C@@H](c3ccccc3)N2C1=O [Compound 1] here?
Answer: < 1000 nM

Question: CCC1(CC)CN2CCC(c3ccc(F)cc3)N2C1=O (centres unmarked) [Compound 2] was tested. Which IC50 did it give?
Answer: 1000 to 30000 nM

Question: With CC1(C)CN2CCC(c3cccc(C#N)c3)N2C1=O (centres unmarked) [Compound 4] as the compound, how does the IC50 read?
Answer: 1000 to 30000 nM

Question: How did the IC50 turn out when CC1(C)CN2CCC(c3cc(F)cc(C#N)c3)N2C1=O (centres unmarked) [Compound 5] was run?
Answer: < 1000 nM

Question: Which IC50 does the source give for CCC1(C)CN2CCC(c3cccc(F)c3)N2C1=O (centres unmarked) [Compound 7] here?
Answer: < 1000 nM

Question: How did the IC50 turn out when CC1(C)CCN2CCC(c3ccccc3)N2C1=O (centres unmarked) [Compound 8] was run?
Answer: 1000 to 30000 nM

Question: With CC1(C)CN2CCC(c3ccc(F)c(F)c3)N2C1=O (centres unmarked) [Compound 9] as the compound, how does the IC50 read?
Answer: 1000 to 30000 nM

Question: How did the IC50 turn out when CCC1(C)CN2CCC(c3ccc(F)c(F)c3)N2C1=O (centres unmarked) [Compound 10] was run?
Answer: < 1000 nM

Question: For CC1(C)CC2(CN3CCC(c4cccc(F)c4)N3C2=O)C1 (centres unmarked) [Compound 12], which IC50 is on record?
Answer: < 1000 nM

Question: Which IC50 does the source give for CC(F)(F)C1(C)CN2CCC(c3cccc(F)c3)N2C1=O (centres unmarked) [Compound 13] here?
Answer: < 1000 nM

Question: For C=CCC1(C)CN2CCC(c3cccc(F)c3)N2C1=O (centres unmarked) [Compound 14], which IC50 is on record?
Answer: < 1000 nM

Question: Which IC50 does the source give for CCCC1(C)CN2CCC(c3cccc(F)c3)N2C1=O (centres unmarked) [Compound 15] here?
Answer: 1000 to 30000 nM

Question: For CCCC1(C)CN2CCC(c3cccc(F)c3)N2C1=O (centres unmarked) [Compound 16], which IC50 is on record?
Answer: < 1000 nM

Question: With CC1(CC2CC2)CN2CCC(c3cccc(F)c3)N2C1=O (centres unmarked) [Compound 17] as the compound, how does the IC50 read?
Answer: < 1000 nM

Question: With CCC1(C(F)F)CN2CCC(c3cncc(Br)c3)N2C1=O (centres unmarked) [Compound 18] as the compound, how does the IC50 read?
Answer: < 1000 nM

Question: How did the IC50 turn out when CCC1(C(F)F)CN2CCC(c3cncc(C#N)c3)N2C1=O (centres unmarked) [Compound 19] was run?
Answer: < 1000 nM

Question: Which IC50 does the source give for CCC1(C(F)F)CN2CCC(c3cccc(F)c3)N2C1=O (centres unmarked) [Compound 20] here?
Answer: < 1000 nM

Question: CCC1(C)CN2CCC(c3cc(F)cc(F)c3)N2C1=O (centres unmarked) [Compound 21] was tested. Which IC50 did it give?
Answer: < 1000 nM

Question: With CCC1(C)CN2CCC(c3cc(F)cc(C#N)c3)N2C1=O (centres unmarked) [Compound 23] as the compound, how does the IC50 read?
Answer: < 1000 nM

Question: With CCC1(C)CN2CCC(c3cncc(F)c3)N2C1=O (centres unmarked) [Compound 25] as the compound, how does the IC50 read?
Answer: < 1000 nM

Question: For CCC1(C)CN2CCC(c3cncc(F)c3)N2C1=O (centres unmarked) [Compound 26], which IC50 is on record?
Answer: 1000 to 30000 nM

Question: For CC1(CC(F)F)CN2CCC(c3cccc(F)c3)N2C1=O (centres unmarked) [Compound 27], which IC50 is on record?
Answer: < 1000 nM

Question: For CC1(CC#N)CN2CCC(c3cccc(F)c3)N2C1=O (centres unmarked) [Compound 28], which IC50 is on record?
Answer: < 1000 nM

Question: Which IC50 does the source give for CCC1(CCl)CN2CCC(c3cccc(F)c3)N2C1=O (centres unmarked) [Compound 29] here?
Answer: < 1000 nM

Question: With CCC1(CF)CN2CCC(c3cccc(F)c3)N2C1=O (centres unmarked) [Compound 30] as the compound, how does the IC50 read?
Answer: < 1000 nM

Question: How did the IC50 turn out when CCC1(C(F)F)CN2CCC(c3cc(F)cc(C#N)c3)N2C1=O (centres unmarked) [Compound 31] was run?
Answer: < 1000 nM

Question: CCC1(C(F)F)CN2CCC(c3cncc(F)c3)N2C1=O (centres unmarked) [Compound 33] was tested. Which IC50 did it give?
Answer: < 1000 nM

Question: With CCC1(C(F)F)CN2CCC(c3cncc(F)c3)N2C1=O (centres unmarked) [Compound 34] as the compound, how does the IC50 read?
Answer: 1000 to 30000 nM

Question: For CC1(CC2CC2)CN2CCC(c3cc(F)cc(C#N)c3)N2C1=O (centres unmarked) [Compound 35], which IC50 is on record?
Answer: < 1000 nM

Question: With CC(F)(F)C1(C)CN2CCC(c3cncc(C#N)c3)N2C1=O (centres unmarked) [Compound 37] as the compound, how does the IC50 read?
Answer: < 1000 nM

Question: CC1(C(F)F)CN2CCC(c3cc(F)cc(C#N)c3)N2C1=O (centres unmarked) [Compound 40] was tested. Which IC50 did it give?
Answer: < 1000 nM

Question: CC1(C(F)F)CN2CCC(c3cc(F)cc(C#N)c3)N2C1=O (centres unmarked) [Compound 41] was tested. Which IC50 did it give?
Answer: 1000 to 30000 nM

Question: For CC(F)(F)C1(C)CN2CCC(c3cc(F)cc(C#N)c3)N2C1=O (centres unmarked) [Compound 42], which IC50 is on record?
Answer: < 1000 nM

Question: With CC(F)(F)C1(C)CN2CCC(c3cc(F)cc(C#N)c3)N2C1=O (centres unmarked) [Compound 43] as the compound, how does the IC50 read?
Answer: 1000 to 30000 nM

Question: For CC(F)(F)C1(C)CN2CCC(c3cncc(F)c3)N2C1=O (centres unmarked) [Compound 46], which IC50 is on record?
Answer: 1000 to 30000 nM

Question: CC(F)(F)C1(C)CN2CCC(c3cncc(F)c3)N2C1=O (centres unmarked) [Compound 47] was tested. Which IC50 did it give?
Answer: < 1000 nM

Question: O=C1N2C(c3cncc(F)c3)CCN2CC1(CC(F)(F)F)C(F)F (centres unmarked) [Compound 48] was tested. Which IC50 did it give?
Answer: 1000 to 30000 nM

Question: With CC1(CC(F)(F)F)CN2CCC(c3cncc(F)c3)N2C1=O (centres unmarked) [Compound 50] as the compound, how does the IC50 read?
Answer: < 1000 nM

Question: How did the IC50 turn out when CC1(CC(F)(F)F)CN2CCC(c3cncc(F)c3)N2C1=O (centres unmarked) [Compound 51] was run?
Answer: 1000 to 30000 nM

Question: How did the IC50 turn out when O=C1N2C(c3cncc(F)c3)CCN2CC1(CC1CC1)C(F)F (centres unmarked) [Compound 52] was run?
Answer: < 1000 nM

Question: With O=C1N2C(c3cncc(F)c3)CCN2CC1(CC1CC1)C(F)F (centres unmarked) [Compound 53] as the compound, how does the IC50 read?
Answer: 1000 to 30000 nM

Question: Which IC50 does the source give for CCCC1(C(F)F)CN2CCC(c3cncc(C#N)c3)N2C1=O (centres unmarked) [Compound 54] here?
Answer: < 1000 nM
